Measurements published in patent US20130303378A1, “Biocide Compositions Comprising Esters Of Ethoxylated Alcohols” (priority 2010, published 2013).

Key:
[1] = system: barley powdery mildew (Blumeria graminis f. sp. hordei); assay: Curative greenhouse trial with Opus SC125 plus adjuvant against barley powdery mildew; format: in vivo, Blumeria graminis f. sp. hordei on barley; conditions: Opus 10 g/ha, adjuvant 50 ml/ha, inoculation 2 days prior to application, assessment 14 DAT, mildew pustules per leaf
Method: Opus SC125, a commercial available pesticide sold by BASF, was tested to control barley powdery mildew (BPM) in a curative greenhouse trial, Azoxystrobin SC 250 in a protective trial. In each case, barley was cultivated in a substrate “Frustorder Erde” for three weeks. Each treatment was replicated 14 times. The adjuvant dose rate in each treatment was 50 ml/ha.
Inoculation of the leaves with powdery mildew (Blumeria graminis f. sp. hordei) was done 2 days prior to application to test Opus' curative action. From the stem, leaf segments were cut off with a length of 10 cm using the flag leaf (F) and 2nd leaf (F-1). Altogether, the leaves of each stem were placed on benzimidazol agar i.e. 0.5% Agar with 40 ppm benzimidazol. The concentration of Opus for the leaf application was 10 g/ha. Assessment 14 days after treatment (14 DAT) of the efficacy against powdery mildew was done by counting the mildew pustules per leaf on a length of 7 cm. The assessment of the infection rate was conducted by a trained biologist.

barley powdery mildew [2] = assay: Protective greenhouse trial with Amistar (Azoxystrobin SC 250) plus adjuvant against barley powdery mildew; format: in vivo, barley powdery mildew on barley; conditions: azoxystrobin 5 g/ha, adjuvant 50 ml/ha, leaf segments cut 5 h after application, incubation 10 d after inoculation
Method: Opus SC125, a commercial available pesticide sold by BASF, was tested to control barley powdery mildew (BPM) in a curative greenhouse trial, Azoxystrobin SC 250 in a protective trial. In each case, barley was cultivated in a substrate “Frustorder Erde” for three weeks. Each treatment was replicated 14 times. The adjuvant dose rate in each treatment was 50 ml/ha. 5 h after application with the equivalent of 5 g/ha azoxystrobin, leaf segments were cut off at a length of 7 cm from the stem. The leaves of the F and F-1 leaf were placed on agar. After the inoculation, the incubation time was 10 d. The assessment of the infection rate was conducted by a trained biologist.

barley powdery mildew [3] = assay: Performance in both trials together (curative Opus and protective Amistar); format: in vivo, barley powdery mildew on barley; conditions: for adjuvancy effect considering the performance in both trials: assessment in words, Opus and Amistar trials; for Sum of infection rates: sum of OPUS and AMISTAR infection rates
Method: Opus SC125, a commercial available pesticide sold by BASF, was tested to control barley powdery mildew (BPM) in a curative greenhouse trial, Azoxystrobin SC 250 in a protective trial. In each case, barley was cultivated in a substrate “Frustorder Erde” for three weeks. Each treatment was replicated 14 times. The adjuvant dose rate in each treatment was 50 ml/ha. Inoculation of the leaves with powdery mildew (Blumeria graminis f. sp. hordei) was done 2 days prior to application to test Opus' curative action. From the stem, leaf segments were cut off with a length of 10 cm using the flag leaf (F) and 2nd leaf (F-1). Altogether, the leaves of each stem were placed on benzimidazol agar i.e. 0.5% Agar with 40 ppm benzimidazol. The concentration of Opus for the leaf application was 10 g/ha. […] The assessment of the infection rate was conducted by a trained biologist. 5 h after application with the equivalent of 5 g/ha azoxystrobin, leaf segments were cut off at a length of 7 cm from the stem. The leaves of the F and F-1 leaf were placed on agar. After the inoculation, the incubation time was 10 d. The assessment of the infection rate was conducted by a trained biologist.

In the case of Isoamyl + 5EO oleate [Example C5], the “Infection rate of barley powdery mildew after treatment with fungicides, OPUS” value (shortened to “Infection rate of barley powdery mildew … OPUS”) [1] is reported as 17%, the “Infection rate of barley powdery mildew after treatment with fungicides, AMISTAR” value (from here on “Infection rate … AMISTAR”) (barley powdery mildew [2]) is reported as 17% and the “adjuvancy effect considering the performance in both trials” value (barley powdery mildew [3]) is reported as “does not give acceptable results”. For the same substance, the “Sum of infection rates” value (barley powdery mildew [3]) was 34%.
For Decyl + 20EO-C8/10 Ester [Example 5], the “Infection rate of barley powdery mildew … OPUS” value [1] was 11%, the “Infection rate … AMISTAR” value (barley powdery mildew [2]) was 12% and the “Sum of infection rates” value (barley powdery mildew [3]) was 23%.
With Isoamyl + 20EO oleate [Example 1] the “Infection rate of barley powdery mildew … OPUS” value [1] was 7%, the “Infection rate … AMISTAR” value (barley powdery mildew [2]) was 0% and the “adjuvancy effect considering the performance in both trials” value (barley powdery mildew [3]) was “best adjuvancy effect”. For the same substance, the “Sum of infection rates” value (barley powdery mildew [3]) was 7%.
In the case of C12/14 + 5EO-C8/10 Ester [Example C2], the “Infection rate of barley powdery mildew … OPUS” value [1] is reported as 24%, the “Infection rate … AMISTAR” value (barley powdery mildew [2]) is reported as 3% and the “Sum of infection rates” value (barley powdery mildew [3]) is reported as 27%.
In the case of Isoamyl + 10EO laurate [Example 3], the “Infection rate of barley powdery mildew … OPUS” value [1] is reported as 4%, the “Infection rate … AMISTAR” value (barley powdery mildew [2]) is reported as 14% and the “Sum of infection rates” value (barley powdery mildew [3]) is reported as 18%.
Decyl + 10EO-C8/10 Ester [Example 4] was tested, and the “Infection rate of barley powdery mildew … OPUS” value [1] was 22%, the “Infection rate … AMISTAR” value (barley powdery mildew [2]) was 0% and the “Sum of infection rates” value (barley powdery mildew [3]) was 22%.
C12/14 + 10EO-C8/10 Ester [Example C3] was tested, and the “Infection rate of barley powdery mildew … OPUS” value [1] was 29%, the “Infection rate … AMISTAR” value (barley powdery mildew [2]) was 2% and the “Sum of infection rates” value (barley powdery mildew [3]) was 31%.
For Isoamyl + 20EO laurate [Example 2], the “Infection rate of barley powdery mildew … OPUS” value [1] was 12%, the “Infection rate … AMISTAR” value (barley powdery mildew [2]) was 0% and the “Sum of infection rates” value (barley powdery mildew [3]) was 12%.
For C12/14 + 20EO-C8/10 Ester [Example C4], the “Infection rate of barley powdery mildew … OPUS” value [1] was 15%, the “Infection rate … AMISTAR” value (barley powdery mildew [2]) was 18% and the “Sum of infection rates” value (barley powdery mildew [3]) was 33%.
With Isodecyl + 6EO-C8/10 Ester [Example C1] the “Infection rate of barley powdery mildew … OPUS” value [1] was 21%, the “Infection rate … AMISTAR” value (barley powdery mildew [2]) was 5% and the “Sum of infection rates” value (barley powdery mildew [3]) was 26%.
